{
  "source": "patent US20250179126A1",
  "about": "“A NOVEL PEPTIDE FROM A PHOTOSYNTHETIC BACERIUM DIRECTLY TARGETS MITOCHONDRIA TO TRIGGER APOPTOSIS IN ADVANCED PROSTATE CANCER CELLS” (priority 2022, published 2025)",
  "key": {"[1]": {"tested_on": "DU145 prostate cancer cells", "assay": "MTT cell viability assay, DU145 prostate cancer cells", "format": "cell-based, human", "conditions": "DU145 (p53-mutant, AR−), 24-72 hr, paclitaxel 1 nM", "text": "Cell viability was detected by MTT assays, and the control (PBS-treated) cells were considered 100% viable. Mean±SE (N=3). *P<0.05, **P<0.01, ***P<0.001.\n(§1) Cell lines and culture: Human cancer and noncancer (immortalized and nonimmortalized) cell lines were obtained from the American Type Culture Collection [prostate cancer (PC3, DU145 and LNCaP), normal prostate (CRL11611), breast cancer (MCF-7), ovarian cancer (SK-OV3 adenocarcinoma), lung cancer (A549)]. MDD2 breast cancer cells (p53 dominant-negative) were provided courtesy of Dr Andrei V. Gudkov, Roswell Park Cancer Institute. 20 All cell lines were cultured in MEM-E (Invitrogen) supplemented with 10% heat-inactivated fetal bovine serum (Atlanta Biological, Inc.), 100 units/mL penicillin, and 100 μg/mL streptomycin at 37° C. in 5% CO2."}, "[2]": {"tested_on": "LNCaP prostate cancer cells", "assay": "MTT cell viability assay, LNCaP prostate cancer cells", "format": "cell-based, human", "conditions": "LNCaP (p53 wild-type, AR+), 24-72 hr; paclitaxel 1 nM", "protocol": "as §1"}, "[3]": {"tested_on": "PC3 prostate cancer cells", "assay": "MTT cell viability assay, PC3 prostate cancer cells", "format": "cell-based, human", "conditions": "PC3 (p53-null, AR−), 24-72 hr, paclitaxel 1 nM", "protocol": "as §1"}, "[4]": {"tested_on": "normal prostate cells CRL11611", "assay": "MTT cell viability assay, normal prostate CRL11611 cells", "format": "cell-based, human", "conditions": "normal prostate CRL11611 (p53+, AR+), 24-72 hr, paclitaxel 1 nM", "text": "FIG. 4A-4D: Effect of peptides on prostate cancer cell lines with differences in p53 and AR expression status. […] Control (PBS)-treated cells were considered to have 100% viability. Mean±SE (N=3).\nas §1\nCytotoxicity assay: The MTT assay was performed as we previously described (Cha et al., Cancer Research 2020, 80: 1615-1623)."}, "LNCaP cells": {"tested_on": "LNCaP cells", "assay": "Annexin-V apoptosis assay by flow cytometry, LNCaP", "format": "cell-based, human", "conditions": "48 hr, Ptxl 1 nM, p28 50 μM, aurA/aurB 0.5-50 μM", "protocol": "(§2) FIG. 7A-7D: Determination of apoptotic cell death. Prostate cancer cell lines (7A: LNCaP, 7B: DU145 and 7C: PC3) and normal prostate CRL11611 cells (7D) were exposed to the indicated agents for 48 hr and stained using apoptosis assay kits according to the manufacturer's instructions. The samples were analyzed by flow cytometry. Mean±SE (N=3).\n(§3) After 48 hr, annexin-V apoptosis assays (Thermo Fisher Scientific) were conducted to detect apoptotic cells. At least 10,000 cells in each case were analyzed by FACS (RRC, UIC)."}, "DU145 cells": {"tested_on": "DU145 cells", "assay": "Annexin-V apoptosis assay by flow cytometry, DU145", "format": "cell-based, human", "conditions": "DU145, 48 hr; Ptxl 1 nM, p28 50 μM, aurA/aurB 0.5-50 μM", "protocol": "as §2, §3"}, "PC3 cells": {"tested_on": "PC3 cells", "assay": "Annexin-V apoptosis assay by flow cytometry, PC3", "format": "cell-based, human", "conditions": "PC3, 48 hr; Ptxl 1 nM, p28 50 μM, aurA/aurB 0.5-50 μM", "protocol": "as §2, §3"}, "[5]": {"tested_on": "normal prostate CRL11611 cells", "assay": "Annexin-V apoptosis assay by flow cytometry, normal prostate CRL11611", "format": "cell-based, human", "conditions": "normal CRL11611, 48 hr; Ptxl 1 nM, p28 50 μM, aurA/aurB 0.5-50 μM", "protocol": "as §2, §3"}, "PC3 xenograft tumors": {"tested_on": "PC3 xenograft tumors", "assay": "PC3 xenograft animal model", "format": "in vivo, athymic mice", "conditions": "end of treatment, four weeks i.p.; aurB 5 mg/kg daily, Ptxl 10 mg/kg once a week", "text": "FIG. 10A-10D: Inhibition of PC3 xenograft tumor growth. 10A, When the s.c. tumors reached ˜5 mm, athymic mice were randomized into control (PBS) and i.p. treatment groups. Mean±SE (N=5). *P<0.01. […] 10C, At the end of treatment, tumors were dissected and weighed. * P<0.01. 10D, In sections of tumors from the control group, there was a marked increase in Ki-67-positive proliferating cells (stained brown and counterstained with haematoxylin, ×40), and only a few apoptotic cells were observed, as determined by TUNEL and caspase-3 (Casp-3) staining. There was an apparent sharp reduction in Ki-67-positive proliferating cells and a higher number of TUNEL-positive apoptotic cells in the aurB-treated group compared to the control group. Similarly, Casp-3 expression in aurB-treated tumors was increased markedly compared with that in untreated controls.\nXenograft animal model: Human prostate cancer cells (PC3) were injected s.c. into the right flanks of 5- to 6-week-old male athymic mice 78. When tumors reached 5 mm in diameter, animals were randomized into control and treatment groups. […] All animals were weighed twice a week. At necropsy, tumors were dissected and weighed. Statistical comparisons were performed by one-way analysis of variance (ANOVA) (control vs treatment). Tumor samples were fixed overnight in 10% buffered formalin. Fixation was followed by dehydration, clearing and infiltration. Samples were then embedded in paraffin, and 4 μm sections were cut on a microtome. Ki67 (LabVision) staining was performed on the tissue sections using a Vector Vectastain Elite ABC Kit. The TUNEL assay was performed on the sections using a Millipore Sigma ApopTag® Peroxidase In Situ Apoptosis Detection Kit."}},
  "data": [
    {"compound": "CSCC[C@H](NC(=O)CNC(=O)[C@H](CC(=O)O)NC(=O)[C@@H](NC(=O)[C@@H](NC(=O)[C@@H](NC(=O)CNC(=O)[C@H](CCC(N)=O)NC(=O)[C@H](CCSC)NC(=O)[C@H](CC(=O)O)NC(=O)[C@H](C)NC(=O)[C@H](C)NC(=O)[C@@H](NC(=O)[C@H](CO)NC(=O)[C@@H](N)CC(C)C)[C@@H](C)O)C(C)C)C(C)C)[C@@H](C)O)C(=O)N[C@@H](C)C(=O)N[C@@H](CO)C(=O)NCC(=O)N[C@@H](CC(C)C)C(=O)N[C@@H](CC(=O)O)C(=O)N[C@@H](CCCCN)C(=O)N[C@@H](CC(=O)O)C(=O)N[C@@H](Cc1ccc(O)cc1)C(=O)N[C@@H](CC(C)C)C(=O)N[C@@H](CCCCN)C(=O)N1CCC[C@H]1C(=O)N[C@@H](CC(=O)O)C(=O)N[C@@H](CC(=O)O)C(=O)O", "note": "[p28, LST AAD MQG VVT DGM ASG LDK DYL KPDD, reference compound]", "values": [
      {"measurement": "cytotoxic effect (MTT cell viability)", "setting": "[1]", "result": "dose-dependent effect"},
      {"measurement": "cytotoxic effect (MTT cell viability)", "setting": "[2]", "result": "dose-dependent effect"},
      {"measurement": "cytotoxic effect (MTT cell viability)", "setting": "[3]", "result": "but not p53-null PC3 cells"},
      {"measurement": "cytotoxic effect (MTT cell viability)", "setting": "[4]", "result": "but not p53-null PC3 cells or normal CRL11611 cells"}
    ]},
    {"compound": "CC(=O)O[C@H]1C(=O)[C@@]2(C)[C@H]([C@H](OC(=O)c3ccccc3)[C@]3(O)C[C@H](OC(=O)[C@H](O)[C@@H](NC(=O)c4ccccc4)c4ccccc4)C(C)=C1C3(C)C)[C@]1(OC(C)=O)CO[C@@H]1C[C@@H]2O", "note": "[paclitaxel, reference compound]", "values": [
      {"measurement": "cytotoxic effect (MTT cell viability)", "setting": "[1]", "result": "significantly induced time-dependent cytotoxicity"},
      {"measurement": "cytotoxic effect (MTT cell viability)", "setting": "[1]; listed as Ptxl", "result": "less susceptible"},
      {"measurement": "cytotoxic effect (MTT cell viability)", "setting": "[2]", "result": "significantly induced time-dependent cytotoxicity"},
      {"measurement": "cytotoxic effect (MTT cell viability)", "setting": "[3]", "result": "significantly induced time-dependent cytotoxicity"},
      {"measurement": "cytotoxic effect (MTT cell viability)", "setting": "[3]; listed as Ptxl", "result": "less susceptible"},
      {"measurement": "cytotoxic effect (MTT cell viability)", "setting": "[4]", "result": "significantly induced time-dependent cytotoxicity"},
      {"measurement": "cytotoxic effect (MTT cell viability)", "setting": "[4]; listed as Ptxl", "result": "most toxic"},
      {"measurement": "apoptotic cell death", "setting": "LNCaP cells", "result": "induced apoptotic cell death"},
      {"measurement": "apoptotic cell death", "setting": "DU145 cells", "result": "induced apoptotic cell death"},
      {"measurement": "apoptotic cell death", "setting": "PC3 cells", "result": "induced apoptotic cell death"},
      {"measurement": "apoptotic cell death", "setting": "[5]", "result": "induced apoptotic cell death"},
      {"measurement": "tumor growth inhibition vs PBS control", "setting": "PC3 xenograft tumors", "result": 52, "unit": "%"}
    ]}
  ]
}
